Results as given in PubChem BioAssay (NCI).
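Dose response: 5 concentrations. Exposure: 48 h. Format: 96-well plates. Endpoint: linear interpolation; highest concentration if not reached. Here, GI50 denotes the concentration required for 50% inhibition of growth. TGI: concentration producing complete growth inhibition.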 Where a SMILES comes first, the peptide text is derived from it. The star is where a group is joined. Trt = c1ccc(C(c2ccccc2)(c2ccccc2)*)cc1; Cbz = O=C(OCc1ccccc1)*

Columns and labels:
Assay in all cases: NCI anticancer screen, dose series, 48 h
[1] = system: HOP-62 NSCLC
[2] = system: HOP-92 NSCLC
[3] = system: IGROV1 ovarian
[4] = system: MDA-MB-435
[5] = system: NCI-H460 lung
[6] = system: NCI-H522 lung
[7] = system: OVCAR-5 ovarian
[8] = system: SK-MEL-5 melanoma
[9] = system: SW-620 colon
[10] = system: UO-31 renal

Compound | GI50 [1] [µM] | TGI [1] [µM] | GI50 [2] [nM] | TGI [2] [µM] | GI50 [3] [µM] | TGI [3] [µM] | GI50 [4] [nM] | TGI [4] [µM] | GI50 [5] [µM] | TGI [5] [µM] | GI50 [6] [µM] | TGI [6] [µM] | GI50 [7] [µM] | TGI [7] [µM] | GI50 [8] [nM] | TGI [8] [µM] | GI50 [9] [µM] | TGI [9] [µM] | GI50 [10] [µM] | TGI [10] [µM]
CCN(CC)Cc1cc(Nc2c3ccccc3nc3cc(Cl)ccc23)ccc1O | 1.73 | 3.16 | 1410 | 3.13 | 1.65 | 3.55 | 1650 | 3.34 | 1.62 | 4.8 | 1.12 | 2.56 | 2.42 | 6.66 | 1750 | 3.16 | 1.18 | 3.63 | 1.34 | 2.64
COC(=O)/C(=N\Nc1nnc(C)n1N)C(C#N)c1ccccc1 (stereo not given) |  | > 100 |  | > 100 |  | > 100 |  | 32.5 |  | > 100 |  | > 100 |  | > 100 |  | > 100 |  | > 100 |  | > 100
Cn1cc(NC(=O)Nc2cc(C(=O)Nc3cc(C(=O)Nc4cc(S(=O)(=O)O)c5cc(S(=O)(=O)O)cc(S(=O)(=O)O)c5c4)n(C)c3)n(C)c2)cc1C(=O)Nc1cc(C(=O)Nc2cc(S(=O)(=O)O)c3cc(S(=O)(=O)O)cc(S(=O)(=O)O)c3c2)n(C)c1 |  | > 100 |  | > 100 |  | > 100 |  | > 100 |  | > 100 |  | > 100 |  | > 100 |  | > 100 |  | > 100 |  | > 100
Cc1cc(Br)cc(C)c1NC(=O)C(=O)Nn1c(=S)[nH]c2ccccc2c1=O |  | > 100 |  | > 100 |  | > 100 |  | > 100 |  | > 100 |  | > 100 |  | > 100 |  | > 100 |  | > 100 |  | > 100
COC(=O)C(CSC(c1ccccc1)(c1ccccc1)c1ccccc1)NC(=O)C(CC(N)=O)NC(=O)OCc1ccccc1 (stereo not drawn) (Cbz-Asn-Cys(Trt)-OMe; configuration not given here) | 3.77 | 14.7 | 2640 | 14.9 | 6.1 | 25.7 | 2130 | 5.2 | 4.5 | 15.8 | 3.91 | 18.7 | 7.23 | 20.2 | 3230 | 14.4 | 7.34 | 23.7 | 8.88 | 21.2
Cc1ccc(S(=O)(=O)NC(CO)C(=O)O)cc1 (stereo not given) |  | > 100 |  | > 100 |  | > 100 |  | > 100 |  | > 100 |  | > 100 |  | > 100 |  | > 100 |  | > 100 |  | > 100
O=Cc1ccc(N2CCN(c3ccc(C=O)cc3)CC2)cc1 | > 100 | > 100 | > 100000 | > 100 | 45.8 | > 100 | > 100000 | > 100 | 77.2 | > 100 | 43.1 | > 100 | 2.6 | 8.09 | > 100000 | > 100 | > 100 | > 100 | > 100 | > 100
H-QIYKKYRTWYRKAWKVLGKV-NH2 | 5.15 | > 100 | 1950 | 4.81 | 3.06 | 14.1 | 5750 | 36.9 | 3.24 | 12.4 | 25.8 | > 100 | 8.79 | 22.5 | 2840 | 8.7 | 13 | 43.6 | 19.2 | 39.5
Cc1c(Cl)cccc1NC(=O)c1sc2nc3c(cc2c1N)CCCC3 | 0.451 | > 100 | 994 | > 100 | 0.82 | > 100 | 226 | 0.775 | 0.473 | > 100 | 0.241 | 0.812 | > 100 | > 100 | 513 | > 100 | 0.471 | > 100 | 3.03 | > 100
O=C1/C(=C\c2ccccc2)C2OCC=C3CN4CCC56c7ccccc7N1C5C2C3CC46 (stereo not given) | 54.3 | > 100 | 6270 | 86.8 | 4.69 | > 100 | 3590 | > 100 | 6.4 | > 100 | 8.01 | > 100 | > 100 | > 100 | 4840 | 17.4 | > 100 | > 100 | 4.04 | > 100
O=C(O)CCc1nc(-c2ccccc2-n2cccc2)no1 |  | > 100 |  | > 100 |  | > 100 |  | 46.3 |  | > 100 |  | > 100 |  | > 100 |  | > 100 |  | > 100 |  | > 100
